Literature values, collected in US11179330B2, “Doxepin oral transmucosal film” (Xiamen LP Pharmaceutical Co., Ltd., priority 2019, dated 2021).
Where a name gives a salt, the structure may show the parent alone.

Tests used:
[1] = patients

Row | Compound | mean oral bioavailability | sleep maintained [1] [h]
1 | CN(C)CCC=C1c2ccccc2COc2ccccc21 [Doxepin] | 13-45% | 
2 | CN(C)CCC=C1c2ccccc2COc2ccccc21 [Doxepin hydrochloride] |  | 7 to 8
